Experiment [1] has as its system Staphylococcus aureus. Briefly: Antibacterial activity against Staphylococcus aureus ATCC 6538 after 24 hrs. As to conditions: ATCC 6538, 24 h. In kind it is functional.
The subject of experiment [2] is Staphylococcus aureus. Briefly: Antibacterial activity against methicillin-resistant Staphylococcus aureus ATCC 33591 after 24 hrs. In kind it is functional. As to conditions: ATCC 33591, 24 h.

Converted amounts (≈) assume the structure as drawn.

In the case of `CO[C@H]1/C=C/O[C@@]2(C)Oc3c(C)c(O)c4c(O)c(c(/C=N/N5CCN(C)CC5)c(O)c4c3C2=O)NC(=O)/C(C)=C\C=C\[C@H](C)[C@H](O)[C@@H](C)[C@@H](O)[C@@H](C)[C@H](OC(C)=O)[C@@H]1C` [RIFAMPIN], the MIC with Staphylococcus aureus [1] is 0.005 µg/mL (≈ 0.00608 µM); with Staphylococcus aureus [2], less than 0.005 µg/mL. Turning to `COc1cc(O)c2c(O)c3c(=O)cc(C)oc3cc2c1C` [QUINQUANGULIN], the MIC amounted to 3.12 µg/mL (≈ 10.9 µM) against Staphylococcus aureus [1] and 6.25 µg/mL (≈ 21.8 µM) against Staphylococcus aureus [2].

`CC[C@H]1OC(=O)[C@H](C)[C@@H](O[C@H]2C[C@@](C)(OC)[C@@H](O)[C@H](C)O2)[C@H](C)[C@@H](O[C@@H]2O[C@H](C)C[C@H](N(C)C)[C@H]2O)[C@](C)(O)C[C@@H](C)C(=O)[C@H](C)[C@@H](O)[C@]1(C)O` [ERYTHROMYCIN] showed an MIC in the experiment on Staphylococcus aureus [1] of 1.25 µg/mL (≈ 1.7 µM).

The record behind these values is ChEMBL document CHEMBL1155762, “A new naphthopyrone derivative from Cassia quinquangulata and structural revision of quinquangulin and its glycosides” (2001).
